Experimental data: patent US7521454B2 (Dainippon Sumitomo Pharma Co., Ltd., priority 2001, dated 2009)
Values after ≈ are worked out from the molar mass of the structure shown. Where a name gives a salt, the structure may show the parent alone. Read-outs that look alike come from different tables or passages of the source.

Legend:
mouse spleen cell = experiment: cells; assay type: cell-based; settings: Mus musculus, 24 h, read-out: Interferon-inducing activity: Minimum effective concentration
[1] = Gastrointestinal absorption in rat (drug level in blood by HPLC); assay type: in vivo; settings: blood, SD male rat; for Cmax: read-out: Cmax; for Tmax: read-out: Tmax
Procedure: A test compound was suspended in an aqueous solution of 0.5% carboxymethylcellulose, and the resulting suspension was orally administered to an SD male rat. Blood was sampled with the elapse of time, and the level of the drug in blood was assayed by HPLC.

IL-5 production = experiment: Inhibitory activity against Th2 cytokine produced from sensitized spleen cells: IL-5; assay type: cell-based, mouse; settings: Mus musculus, 72 h, OVA-sensitized BALB/c spleen cells, 3 days; for activity at 0.001 µM: concentration 1 nM; for activity at 0.001 µM / activity at 0.01 µM / activity at 0.1 µM: read-out: Inhibitory activity against IL-5 production; for activity at 0.01 µM: concentration 10 nM; for activity at 0.1 µM: concentration 100 nM; for activity at 0.0001 µM: concentration 0.1 nM
Procedure: (§1) A 7-week-old BALB/c mouse was immunized intraperitoneally with aluminum hydroxide gel (4 mg, 100 μl) having 10 μg of ovalbumin adsorbed thereon, and it was subjected to additional immunization with the same agent 14 days later. Seven days thereafter, spleen was taken out, and suspended in RPMI-1640 comprising inactivated fetal bovine serum (10%), 2-mercaptoethanol ([…]), penicillin G (100 U/ml), and streptomycin (100 μg/ml). Thus, a splenic cell suspension was prepared. Ovalbumin (0.5 mg/ml) and a test compound were added to a splenic cell suspension (5×10^6 cell/200 μl/well), and the resultant was cultured at 37° C. in the presence of 5% CO2 for 3 days. The cytokine level in the culture supernatant was quantified by ELISA. IFN-γ and IL-4 were assayed using a kit available from Amersham, and IL-5 was assayed using a kit available from Endogen.

IL-4 production = experiment: Inhibitory activity against Th2 cytokine produced from sensitized spleen cells: IL-4; assay type: cell-based, mouse; settings: Mus musculus, 72 h, OVA-sensitized BALB/c spleen cells, 3 days; for activity at 0.001 µM: concentration 1 nM; for activity at 0.001 µM / activity at 0.01 µM / activity at 0.1 µM: read-out: Inhibitory activity against IL-4 production; for activity at 0.01 µM: concentration 10 nM; for activity at 0.1 µM: concentration 100 nM; for activity at 0.0001 µM: concentration 0.1 nM
Procedure: as §1

Balb/c male mouse = experiment: Interferon-inducing activity in mouse (in vivo), serum interferon titer after oral dosing
[2] = Solubility in citric acid/disodium phosphate buffers; settings: citric acid/disodium phosphate buffer, thermodynamic from solid
Procedure: 5.53% citric acid (monohydrate) and 1.75% disodium phosphate (anhydrous) were mixed together to prepare buffers (pH 2.5, 5.5, 7.4). A compound was added thereto, the mixture was stirred in a vortex mixer and subjected to ultrasonication for 30 minutes. Thereafter, the resultant was stirred in a vortex mixer again and then centrifuged at 15,000 rpm for 20 minutes. The levels of the compounds in the supernatants were then quantified by HPLC.

[3] = system: human peripheral blood mononuclear cells (PBMC); experiment: Interferon-inducing activity in human peripheral blood mononuclear cells (PBMC), IFN-α ELISA; assay type: cell-based; settings: 24 h;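 note: IFN-α in pg/ml with a 1.25 pg/ml detection limit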
Procedure: Peripheral bloods were sampled from 5 healthy volunteers using a syringe containing heparin, and peripheral blood mononuclear cells (PBMC) were prepared by density gradient centrifugation utilizing the Lymphoprep™ (NYCOMED PHARMA AS). PBMCs were washed twice in serum-free RPMI 1640 medium and adjusted at 1×10^6 cells/ml in RPMI 1640 medium comprising 10% fetal bovine serum. The product was cultured in the presence of a test compound dissolved in dimethyl sulfoxide (final concentration: 0.1%) in an incubator in the presence of 5% CO^2 at 37° C. for 24 hours. As a control, 0.1% dimethyl sulfoxide containing no test compound was used. The culture supernatant was aseptically collected by filtration. Thereafter, the supernatant was cryopreserved at −20° C. or lower until it was subjected to the assay for IFN-inducing activity. Human IFN-α in the culture supernatant was quantified using a highly sensitive ELISA system (Amersham).

[4] = dosage 0.03 mg/kg oral, serum 2 h after dosing, Balb/c mouse
[5] = dosage 0.1 mg/kg oral, serum 2 h after dosing, Balb/c mouse
[6] = dosage 0.3 mg/kg oral, serum 2 h after dosing, Balb/c mouse

SMILES	minimal effective concentration (mouse spleen cell) [µM]	activity at 0.001 µM (IL-5 production) [%]	activity at 0.01 µM (IL-5 production) [%]	activity at 0.1 µM (IL-5 production) [%]	activity at 0.001 µM (IL-4 production) [%]	activity at 0.01 µM (IL-4 production) [%]	activity at 0.1 µM (IL-4 production) [%]	Interferon-inducing activity (Balb/c male mouse; po, 0.03 mg/kg, 2 h) [U/ml]	Interferon-inducing activity (Balb/c male mouse; po, 0.1 mg/kg, 2 h) [U/ml]	Interferon-inducing activity (Balb/c male mouse; po, 0.3 mg/kg, 2 h) [U/ml]	activity at 0.0001 µM (IL-5 production) [%]	activity at 0.0001 µM (IL-4 production) [%]	solubility at 30 min ([2]; pH 2.5, aqueous buffer) [µg/mL]	solubility at 30 min ([2]; pH 5.5, aqueous buffer) [µg/mL]	solubility at 30 min ([2]; pH 7.4, aqueous buffer) [µg/mL]	further results
CC(C)Cn1cnc2c(N)nc3ccccc3c21 [Comparative Example 1, Imiquimod, reference compound]	0.3	54	15	10	18	1	< 1	–	–	–	–	–	–	–	–	Cmax ([1]; dose 3 mg/kg oral): 90 ng/mL; Tmax ([1]; dose 3 mg/kg oral): 30 min
CCCCOc1nc(N)c2nc(O)n(Cc3ccc(OC)nc3)c2n1 [Example 2, 2-Butoxy-8-hydroxy-9-(6-methoxy-3-pyridylmethyl)adenine]	0.001	37	14	12	4	< 1	< 1	388 ± 87	1211 ± 263	2559 ± 495	98	96	–	–	–	Interferon-inducing activity (Balb/c male mouse; po, 0.01 mg/kg, 2 h): 25 ± 17 U/ml
CCCCNc1nc(N)c2nc(O)n(Cc3ccccc3)c2n1 [Reference Compound 1, 9-Benzyl-2-butylamino-8-hydroxyadenine, reference compound]	0.1	–	92	69	–	109	24	–	55 ± 25	275 ± 165	–	–	26 (≈ 83.2 µM)	< 1	< 1	–
CCCCNc1nc(N)c2nc(O)n(Cc3ccncc3)c2n1 [Example 22, 2-Butylamino-8-hydroxy-9-(4-pyridylmethyl)adenine]	0.01	115	50	18	88	9	1	–	21 ± 9	332 ± 83	–	–	> 80000	73 (≈ 233 µM)	16 (≈ 51.1 µM)	–
CCCCOc1nc(N)c2nc(O)n(Cc3ccccc3)c2n1 [Reference Compound 2, 9-benzyl-2-butoxy-8-hydroxyadenine, reference compound]	0.001	79	16	11	48	1	< 1	60 ± 40	186 ± 42	317 ± 160	99	107	2 (≈ 6.38 µM)	< 1	< 1	Interferon-inducing activity (human IFN-α in culture supernatant) ([3]; concentration 1 nM): — ((−) indicates a detection limit (1.25 pg/ml) or lower); Interferon-inducing activity (human IFN-α in culture supernatant) ([3]; concentration 3 nM): 7 pg/mL; Interferon-inducing activity (human IFN-α in culture supernatant) ([3]; concentration 10 nM): 23 ± 22 pg/mL; Interferon-inducing activity (human IFN-α in culture supernatant) ([3]; concentration 30 nM): 64 ± 40 pg/mL
CCCCOc1nc(N)c2nc(O)n(Cc3ccc(Cl)nc3)c2n1 [Example 1, 2-Butoxy-9-(6-chloro-3-pyridylmethyl)-8-hydroxyadenine]	0.001	41	16	15	7	2	< 1	–	–	–	116	98	–	–	–	Interferon-inducing activity (Balb/c male mouse; [4]): 123 ± 87 U/ml; Interferon-inducing activity (Balb/c male mouse; [5]): 322 ± 95 U/ml; Interferon-inducing activity (Balb/c male mouse; [6]): 623 ± 32 U/ml
CCCCOc1nc(N)c2nc(O)n(Cc3ccc(C)nc3)c2n1 [Hydrochloride of Example 25, 2-Butoxy-8-hydroxy-9-(6-methyl-3-pyridylmethyl)adenine]	–	–	–	–	–	–	–	–	–	–	–	–	–	–	–	Cmax ([1]; dose 3 mg/kg oral): 18 ng/mL; Tmax ([1]; dose 3 mg/kg oral): 60 min; Cmax ([1]; dose 10 mg/kg oral): 150 ng/mL; Tmax ([1]; dose 10 mg/kg oral): 15 min
CCCCNc1nc(N)c2nc(O)n(Cc3ccccn3)c2n1 [Example 20, 2-Butylamino-8-hydroxy-9-(2-pyridylmethyl)adenine]	0.03	106	71	19	106	23	2	–	–	–	–	–	8810 (≈ 28100 µM)	–	–	–
CCCCNc1nc(N)c2nc(O)n(Cc3cccnc3)c2n1 [Example 21, 2-Butylamino-8-hydroxy-9-(3-pyridylmethyl)adenine]	0.003	97	23	15	53	1	< 1	15 ± 8	290 ± 134	571 ± 164	–	–	15000 (≈ 47900 µM)	45 (≈ 144 µM)	64 (≈ 204 µM)	–
CCCCOc1nc(N)c2nc(O)n(Cc3ccc(C)nc3)c2n1 [Example 25, 2-Butoxy-8-hydroxy-9-(6-methyl-3-pyridylmethyl)adenine]	0.001	31	13	13	2	< 1	< 1	–	–	–	102	86	> 1000	5 (≈ 15.2 µM)	3 (≈ 9.14 µM)	Interferon-inducing activity (Balb/c male mouse; dosage 0.01 mg/kg oral, serum 2 h after dosing, Balb/c mouse): 65 ± 52 U/ml; Interferon-inducing activity (Balb/c male mouse; [4]): 151 ± 29 U/ml; Interferon-inducing activity (Balb/c male mouse; [5]): 753 ± 140 U/ml; Interferon-inducing activity (Balb/c male mouse; [6]): 721 ± 299 U/ml; Interferon-inducing activity (human IFN-α in culture supernatant) ([3]; concentration 0.3 nM): 7 ± 3 pg/mL; Interferon-inducing activity (human IFN-α in culture supernatant) ([3]; concentration 1 nM): 28 ± 24 pg/mL; Interferon-inducing activity (human IFN-α in culture supernatant) ([3]; concentration 3 nM): 46 ± 34 pg/mL
